Assay results: patent US11471537B2, “Oligomer extended insulin-Fc conjugates” (Novo Nordisk A/S, priority 2017, dated 2022)

Experiments:
Sprague-Dawley rats = assay: PD studies: blood glucose after subcutaneous dosing; assay type: in vivo; conditions: sc
Description: The pharmacodynamic effect of the Insulin Fc conjugates of the examples were investigated in normal male Sprague-Dawley rats weighing approx. 350 g at study start.
Animals had free access to food and water during the experiment period. They were dosed subcutaneously in the neck region with a dose of 30 nmol/kg (unless otherwise stated in the figures below). Blood samples for blood glucose and plasma insulin analysis were collected from the tongue veins up to 10 days post dosing. Blood glucose was measured using Biosen S Line (EKF).

insulin receptor A = insulin receptor A (Homo sapiens, UniProt P06213); assay: Insulin receptor affinity; assay type: binding; conditions: relative to affinity of human insulin for insulin receptor A (100%)
[1] = PK studies: intravenous and subcutaneous administration to SD rats, insulin-Fc concentrations by immuno-assay; assay type: in vivo; conditions: for PK rat sc [T½ (h)] Mean Value: subcutaneous
Description: Insulin-Fc conjugates were tested in vivo by intravenous and subcutaneous administration to SD rats. Blood samples were collected and the insulin-Fc concentrations were measured by immuno-assay.

isolated rat adipocytes = assay: Insulin-stimulated lipogenesis; assay type: cell-based; conditions: 1% HSA; relative to the activity of human insulin (100%)
Description: Insulin-stimulated lipogenesis was measured in isolated rat adipocytes in presence of 1% HSA as described in Moody A J, Stan M A, Stan M, Gliemann J. A Simple Free Fat Cell Bioassay for Insulin. Hormone And Metabolic Research. 1974; 6(1):12-6, see results in Table 6.

[2] = dose 30 nmol/kg, time 0.041667 days
[3] = dose 30 nmol/kg, time 0.125 days
[4] = dose 30 nmol/kg, time 0.291667 days
[5] = dose 30 nmol/kg, time 0.208333 days

Chain of insulin receptor A (P06213 28-1370 isoform P06213-2 limits assumed): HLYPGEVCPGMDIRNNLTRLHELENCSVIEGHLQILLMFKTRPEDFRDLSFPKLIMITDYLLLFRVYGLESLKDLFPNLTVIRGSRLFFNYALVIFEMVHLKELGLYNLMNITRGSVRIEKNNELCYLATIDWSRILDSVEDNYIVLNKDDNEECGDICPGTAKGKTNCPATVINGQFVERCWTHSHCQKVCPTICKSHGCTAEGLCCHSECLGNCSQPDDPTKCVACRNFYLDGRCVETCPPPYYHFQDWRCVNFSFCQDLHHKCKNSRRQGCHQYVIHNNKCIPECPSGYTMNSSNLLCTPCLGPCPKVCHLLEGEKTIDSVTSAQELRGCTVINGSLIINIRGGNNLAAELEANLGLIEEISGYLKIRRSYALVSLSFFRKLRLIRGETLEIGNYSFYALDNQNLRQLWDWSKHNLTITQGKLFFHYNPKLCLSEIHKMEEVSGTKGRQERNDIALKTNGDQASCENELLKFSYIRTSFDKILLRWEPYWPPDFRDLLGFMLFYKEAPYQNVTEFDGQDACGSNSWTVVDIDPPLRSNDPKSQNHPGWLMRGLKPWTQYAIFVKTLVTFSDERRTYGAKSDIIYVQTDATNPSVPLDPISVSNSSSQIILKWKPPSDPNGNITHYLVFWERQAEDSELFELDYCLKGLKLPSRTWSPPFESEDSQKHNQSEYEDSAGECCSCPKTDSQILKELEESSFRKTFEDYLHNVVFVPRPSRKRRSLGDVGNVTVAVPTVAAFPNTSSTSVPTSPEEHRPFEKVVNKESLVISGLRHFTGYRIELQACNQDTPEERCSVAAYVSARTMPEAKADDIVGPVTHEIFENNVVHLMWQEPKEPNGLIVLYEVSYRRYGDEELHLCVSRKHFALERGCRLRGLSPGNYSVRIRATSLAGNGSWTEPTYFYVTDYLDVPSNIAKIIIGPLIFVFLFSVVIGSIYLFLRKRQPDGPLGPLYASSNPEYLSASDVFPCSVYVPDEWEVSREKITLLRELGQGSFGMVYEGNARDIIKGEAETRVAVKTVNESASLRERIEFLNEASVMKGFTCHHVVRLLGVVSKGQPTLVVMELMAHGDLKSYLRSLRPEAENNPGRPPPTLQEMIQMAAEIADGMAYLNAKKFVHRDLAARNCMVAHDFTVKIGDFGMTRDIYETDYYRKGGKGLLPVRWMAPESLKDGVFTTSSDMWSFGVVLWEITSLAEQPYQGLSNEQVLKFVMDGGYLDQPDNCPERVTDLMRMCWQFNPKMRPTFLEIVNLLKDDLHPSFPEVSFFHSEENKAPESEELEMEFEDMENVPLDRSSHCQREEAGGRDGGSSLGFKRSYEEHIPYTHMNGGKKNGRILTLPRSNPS
Chain of insulin receptor A (P06213 763-1382 partner limits assumed): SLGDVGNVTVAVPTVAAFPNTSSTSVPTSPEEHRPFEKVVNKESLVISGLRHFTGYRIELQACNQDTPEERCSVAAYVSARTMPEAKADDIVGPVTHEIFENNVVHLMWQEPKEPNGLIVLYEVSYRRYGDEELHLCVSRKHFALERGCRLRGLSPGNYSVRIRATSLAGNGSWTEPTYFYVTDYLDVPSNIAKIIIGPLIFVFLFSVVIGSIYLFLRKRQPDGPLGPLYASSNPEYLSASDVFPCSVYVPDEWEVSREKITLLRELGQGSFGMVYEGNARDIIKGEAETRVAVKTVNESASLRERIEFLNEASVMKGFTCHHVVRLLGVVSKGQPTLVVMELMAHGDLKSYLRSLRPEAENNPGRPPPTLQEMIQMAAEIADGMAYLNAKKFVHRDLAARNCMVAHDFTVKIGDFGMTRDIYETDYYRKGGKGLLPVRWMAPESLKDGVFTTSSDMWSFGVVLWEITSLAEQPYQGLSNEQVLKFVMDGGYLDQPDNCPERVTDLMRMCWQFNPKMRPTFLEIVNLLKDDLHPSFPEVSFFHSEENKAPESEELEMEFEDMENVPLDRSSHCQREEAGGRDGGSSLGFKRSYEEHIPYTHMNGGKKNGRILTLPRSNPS

| Substance | Average blood glucose (Sprague-Dawley rats; dose 30 nmol/kg, time 0 days) | Average blood glucose (Sprague-Dawley rats; [2]) | Average blood glucose (Sprague-Dawley rats; [3]) | Average blood glucose (Sprague-Dawley rats; [4]) | Average blood glucose (Sprague-Dawley rats; dose 30 nmol/kg, time 1 day) | Average blood glucose (Sprague-Dawley rats; dose 30 nmol/kg, time 2 days) | Average blood glucose (Sprague-Dawley rats; dose 30 nmol/kg, time 3 days) | Average blood glucose (Sprague-Dawley rats; dose 30 nmol/kg, time 4 days) | Average blood glucose (Sprague-Dawley rats; dose 30 nmol/kg, time 5 days) | Average blood glucose (Sprague-Dawley rats; dose 30 nmol/kg, time 6 days) | Average blood glucose (Sprague-Dawley rats; dose 30 nmol/kg, time 7 days) | Average blood glucose (Sprague-Dawley rats; dose 30 nmol/kg, time 8 days) | Insulin receptor affinity [IC50 relative to HI (%)] Mean Value (insulin receptor A) | PK rat iv [T½ (h)] Mean Value [1] | PK rat sc [T½ (h)] Mean Value [1] | Lipogenesis in rat adipocytes [Potency (%)] Mean Value (isolated rat adipocytes) | also measured |
| --- | --- | --- | --- | --- | --- | --- | --- | --- | --- | --- | --- | --- | --- | --- | --- | --- | --- |
| (A1(N(alpha)acetyl), A14E, A21G, A22(GQAP)19, A98K^, A99P, B1(N(alpha)acetyl), B25H, B29R, desB30 human insulin)/(227A, 234A, 235K, 297E, 315Q, 384Q, des447 hIgG4-Fc(228-447))4-[bis[2-[(2-acetyl)amino]ethyl]amino]-4-oxo-butanoyl Conjugate [Example 5.27] | 5.504 mM | 6.308 mM | 5.72 mM | 5.164 mM | 3.036 mM | 3.852 mM | 4.384 mM | 5.272 mM | 5.236 mM | 5.564 mM | 5.824 mM | 5.924 mM | 1.07% | 40.7 h | 50.4 h | – | Average blood glucose (Sprague-Dawley rats; dose 30 nmol/kg, time 9 days): 5.68 mM; Average blood glucose (Sprague-Dawley rats; dose 30 nmol/kg, time 10 days): 6.12 mM |
| A14E, A21G, A22(GQAPGQAPGQEP)6-GQAP, A98K^, A99P, B3Q, B25H, B29R, desB30 human insulin/(227A, 234A, 235K, 297E, 315Q, 3840, des447 hIgG4-Fc(228-447))4-[bis[2-[(2-acetyl)amino]ethyl]amino]-4-oxo-butanoyl Conjugate [Example 5.13] | 6.384 mM | 5.976 mM | 4.892 mM | 4.184 mM | 2.428 mM | 2.452 mM | 3.308 mM | 5.676 mM | – | 5.908 mM | 5.812 mM | 5.492 mM | 5.55% | – | – | 3.07% | – |
| A14E, A21G, A22(GQAPGQEP)6, A70K^, A71P, B25H, B29R, desB30 human insulin/(227A, 234A, 235K hIgG4-Fc(228-447))4-[bis[2-[(2-acetyl)amino]ethyl]amino]-4-oxo-butanoyl Conjugate [Example 5.9] | 5.812 mM | 5.448 mM | 5.438 mM | 4.426 mM | 3.044 mM | 2.614 mM | 2.594 mM | 3.734 mM | 5.932 mM | 6.244 mM | 6.312 mM | 6.186 mM | 2.96% | – | – | 3.02% | Average blood glucose (Sprague-Dawley rats; [5]): 4.902 mM |
| A14E, A21G, A22(GQEP)6, A46K^, A47P, B25H, B29R, desB30 human insulin/(227A, 234A, 235K hIgG4-Fc(228-447))4-[bis[2-[(2-acetyl)amino]ethyl]amino]-4-oxo-butanoyl Conjugate [Example 5.7] | 5.918 mM | 5.682 mM | 4.502 mM | 3.428 mM | 2.758 mM | 2.15 mM | 2.3 mM | 2.81 mM | 4.404 mM | 6.702 mM | 6.518 mM | 6.33 mM | 2.43% | – | – | 1.88% | Average blood glucose (Sprague-Dawley rats; [5]): 3.974 mM |
| A14E, A21G, A22(GQEP)12, A70K^, A71P, B25H, B29R, desB30 human insulin/(227A, 234A, 235K hIgG4-Fc(228-447))4-[bis[2-[(2-acetyl)amino]ethyl]amino]-4-oxo-butanoyl Conjugate [Example 5.8] | 5.538 mM | 5.44 mM | 4.488 mM | 3.238 mM | 2.978 mM | 1.844 mM | 2.545 mM | 3.325 mM | 5.39 mM | 6.8425 mM | 6.4875 mM | 6.1875 mM | 10.58% | – | – | 5.31% | Average blood glucose (Sprague-Dawley rats; [5]): 3.55 mM |
| A14E, A21G, A22(GQEP)19, A98K^, A99P, B3Q, B25H, B29R, desB30 human insulin/(227A, 234A, 235K, 297E, 315Q, 384Q, des447 hIgG4-Fc(228-447))4-[bis[2-[(2-acetyl)amino]ethyl]amino]-4-oxo-butanoyl Conjugate [Example 5.2] | 6.608 mM | 6.196 mM | 5.328 mM | 4.48 mM | 2.7 mM | 2.66 mM | 3.08 mM | 5.156 mM | – | 6.232 mM | 6.092 mM | 5.972 mM | 6.10% | – | – | 3.57% | – |
| A14E, A21Q, A22(G)18, A40K^, B25H, B29R, desB30 human insulin/(227A, 234A, 235K hIgG4-Fc(228-447))4-[bis[2-[(2-acetyl)amino]ethyl]amino]-4-oxo-butanoyl Conjugate [Example 5.21] | – | – | – | – | – | – | – | – | – | – | – | – | 2.10% | – | – | 0.95% | Average blood glucose (Sprague-Dawley rats; dose 300 nmol/kg, time 0 days): 5.254 mM; Average blood glucose (Sprague-Dawley rats; dose 300 nmol/kg, time 0.006944 days): 5.972 mM; Average blood glucose (Sprague-Dawley rats; dose 300 nmol/kg, time 0.041667 days): 4.224 mM; Average blood glucose (Sprague-Dawley rats; dose 300 nmol/kg, time 0.125 days): 3.238 mM; Average blood glucose (Sprague-Dawley rats; dose 300 nmol/kg, time 0.208333 days): 2.842 mM; Average blood glucose (Sprague-Dawley rats; dose 300 nmol/kg, time 0.291667 days): 3.212 mM; Average blood glucose (Sprague-Dawley rats; dose 300 nmol/kg, time 0.3336 days): 3.494 mM; Average blood glucose (Sprague-Dawley rats; dose 300 nmol/kg, time 1 day): 2.58 mM; Average blood glucose (Sprague-Dawley rats; dose 300 nmol/kg, time 2 days): 2.118 mM; Average blood glucose (Sprague-Dawley rats; dose 300 nmol/kg, time 3 days): 2.074 mM; Average blood glucose (Sprague-Dawley rats; dose 300 nmol/kg, time 4 days): 2.37 mM; Average blood glucose (Sprague-Dawley rats; dose 300 nmol/kg, time 5 days): 2.478 mM; Average blood glucose (Sprague-Dawley rats; dose 300 nmol/kg, time 6 days): 4.534 mM; Average blood glucose (Sprague-Dawley rats; dose 300 nmol/kg, time 7 days): 5.588 mM; Average blood glucose (Sprague-Dawley rats; dose 300 nmol/kg, time 8 days): 6.552 mM; Average blood glucose (Sprague-Dawley rats; dose 300 nmol/kg, time 9 days): 5.644 mM; Average blood glucose (Sprague-Dawley rats; dose 300 nmol/kg, time 10 days): 5.788 mM |
| A14E, B(−78K^), B(−77P), B(−1)(GQAP)19, B25H, B29R, desB30 human insulin/(227A, 234A, 235K, 297E, 315Q, 384Q, des447 hIgG4-Fc(228-447))4-[bis[2-[(2-acetyl)amino]ethyl]amino]-4-oxo-butanoyl Conjugate [Example 5.18] | – | – | – | – | – | – | – | – | – | – | – | – | 2.78% | 24.9 h | 28.0 h | 0.87% | – |
| A14E, B(−78K^), B(−77P), B(−1)(GQAPGQAPGQEP)6-GQAP, B3Q, B25H, B29R, desB30 human insulin/(227A, 234A, 235K hIgG4-Fc(228-447))4-[bis[2-[(2-acetyl)amino]ethyl]amino]-4-oxo-butanoyl Conjugate [Example 5.3] | – | – | – | – | – | – | – | – | – | – | – | – | 2.57% | 35.6 h | 33.1 h | 0.55% | – |
| A14E, B(−78K^), B(−77P), B(−1)(GQEP)19, B25H, B29R, desB30 human insulin/(227A, 234A, 235K hIgG4-Fc(228-447))4-[bis[2-[(2-acetyl)amino]ethyl]amino]-4-oxo-butanoyl Conjugate [Example 5.4] | – | – | – | – | – | – | – | – | – | – | – | – | 2.14% | 26.4 h | 32.2 h | 0.36% | – |
| A14E, B(−78K^), B(−77P), B(−1)(GQEP)19, B25H, B29R, desB30 human insulin/(227A, 234A, 235K, 297E, 315Q, 384Q, des447 hIgG4-Fc(228-447))4-[bis[2-[(2-acetyl)amino]ethyl]amino]-4-oxo-butanoyl Conjugate [Example 5.11] | – | – | – | – | – | – | – | – | – | – | – | – | 1.72% | 30.7 h | 33.1 h | 0.39% | – |
